Data set [1] deals with T1, cytosolic phospholipase A2 (cPLA2, PLA2G4) (Homo sapiens, UniProt P47712).
T1 sequence (P47712 1-749): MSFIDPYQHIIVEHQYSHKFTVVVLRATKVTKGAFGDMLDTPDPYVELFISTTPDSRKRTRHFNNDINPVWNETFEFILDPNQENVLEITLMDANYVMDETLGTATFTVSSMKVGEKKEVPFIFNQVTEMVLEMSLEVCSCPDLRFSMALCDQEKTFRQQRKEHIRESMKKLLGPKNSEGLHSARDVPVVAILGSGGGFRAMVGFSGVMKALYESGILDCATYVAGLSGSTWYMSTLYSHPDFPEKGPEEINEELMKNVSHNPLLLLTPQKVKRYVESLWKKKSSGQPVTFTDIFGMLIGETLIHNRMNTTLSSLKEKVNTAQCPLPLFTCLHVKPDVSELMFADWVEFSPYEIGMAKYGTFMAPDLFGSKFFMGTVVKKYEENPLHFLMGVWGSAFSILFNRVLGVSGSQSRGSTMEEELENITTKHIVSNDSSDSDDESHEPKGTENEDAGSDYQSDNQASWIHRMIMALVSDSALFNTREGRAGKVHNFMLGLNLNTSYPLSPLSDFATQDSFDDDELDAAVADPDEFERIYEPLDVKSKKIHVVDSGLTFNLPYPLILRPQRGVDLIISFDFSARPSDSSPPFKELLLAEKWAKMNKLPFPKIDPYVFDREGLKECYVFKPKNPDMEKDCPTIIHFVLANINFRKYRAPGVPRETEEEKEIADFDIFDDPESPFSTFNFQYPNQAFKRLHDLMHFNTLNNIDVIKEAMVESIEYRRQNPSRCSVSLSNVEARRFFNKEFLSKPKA
Briefly: cPLA2 phosphorylation.

Another data set has as its target T2, ALOX5 (Homo sapiens, UniProt P09917).
T2 sequence (P09917 1-674): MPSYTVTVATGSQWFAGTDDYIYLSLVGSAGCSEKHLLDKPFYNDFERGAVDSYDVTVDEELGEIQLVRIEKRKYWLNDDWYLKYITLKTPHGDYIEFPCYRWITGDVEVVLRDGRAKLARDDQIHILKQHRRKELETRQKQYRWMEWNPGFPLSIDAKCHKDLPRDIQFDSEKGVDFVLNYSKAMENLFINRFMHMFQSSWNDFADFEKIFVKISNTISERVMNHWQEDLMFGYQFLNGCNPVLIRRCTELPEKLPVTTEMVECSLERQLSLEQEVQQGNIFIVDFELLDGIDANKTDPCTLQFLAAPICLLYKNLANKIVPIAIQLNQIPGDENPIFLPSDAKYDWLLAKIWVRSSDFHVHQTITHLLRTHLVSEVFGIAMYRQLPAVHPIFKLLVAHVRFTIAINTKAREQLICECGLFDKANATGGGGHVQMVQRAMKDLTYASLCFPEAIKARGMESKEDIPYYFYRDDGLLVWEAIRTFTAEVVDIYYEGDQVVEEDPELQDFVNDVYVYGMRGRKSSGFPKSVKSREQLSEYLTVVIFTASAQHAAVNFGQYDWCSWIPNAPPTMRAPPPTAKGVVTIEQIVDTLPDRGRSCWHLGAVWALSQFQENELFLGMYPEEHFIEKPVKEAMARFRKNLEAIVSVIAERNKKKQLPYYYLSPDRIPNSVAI
The note with it: in vitro and in vivo; cited from earlier work.

The target in the next data set is T3, CYP1A2 (Homo sapiens, UniProt P05177).
T3 sequence (P05177 1-516): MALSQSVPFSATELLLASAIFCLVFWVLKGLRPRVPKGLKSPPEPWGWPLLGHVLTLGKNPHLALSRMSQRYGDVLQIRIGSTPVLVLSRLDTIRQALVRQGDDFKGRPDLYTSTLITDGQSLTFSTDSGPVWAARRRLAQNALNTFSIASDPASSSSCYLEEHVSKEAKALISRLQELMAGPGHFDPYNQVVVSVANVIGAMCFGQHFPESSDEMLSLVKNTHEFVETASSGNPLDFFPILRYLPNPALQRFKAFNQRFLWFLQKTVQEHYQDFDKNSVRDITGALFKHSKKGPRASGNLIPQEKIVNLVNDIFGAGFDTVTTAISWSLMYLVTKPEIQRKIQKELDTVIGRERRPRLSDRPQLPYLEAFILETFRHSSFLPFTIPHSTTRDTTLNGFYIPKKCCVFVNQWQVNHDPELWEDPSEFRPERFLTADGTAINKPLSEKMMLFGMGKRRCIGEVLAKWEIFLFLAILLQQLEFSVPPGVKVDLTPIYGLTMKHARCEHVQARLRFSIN
To be noted: cited from earlier work.

The target in another data set is T4, CYP1A1 enzyme (Homo sapiens, UniProt P04798).
T4 sequence (P04798 1-512): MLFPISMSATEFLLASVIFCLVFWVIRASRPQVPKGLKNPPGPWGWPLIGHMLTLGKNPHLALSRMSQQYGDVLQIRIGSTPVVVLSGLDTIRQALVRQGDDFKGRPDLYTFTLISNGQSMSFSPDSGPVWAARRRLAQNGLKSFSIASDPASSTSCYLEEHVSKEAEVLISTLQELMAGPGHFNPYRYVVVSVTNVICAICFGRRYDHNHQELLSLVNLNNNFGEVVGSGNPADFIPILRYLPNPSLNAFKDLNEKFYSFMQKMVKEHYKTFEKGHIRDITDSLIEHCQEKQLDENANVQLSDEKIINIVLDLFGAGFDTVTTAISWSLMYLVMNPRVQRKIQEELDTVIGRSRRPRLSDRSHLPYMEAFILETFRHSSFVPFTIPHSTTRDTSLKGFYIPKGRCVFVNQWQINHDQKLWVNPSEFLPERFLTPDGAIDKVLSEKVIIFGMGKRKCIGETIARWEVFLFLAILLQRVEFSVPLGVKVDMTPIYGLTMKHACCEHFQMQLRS
The note with it: cited from earlier work.

In data set [2] the test system is loperamide-induced acute model mice. Type of data set: in vivo, C57BL/6J Mus musculus. The note with it: oral loperamide 2.5 mg/kg, 0-9 h after treatment, mean±SEM, n=6. The method, then: Six-week-old male (18-22 g) C57BL/6J Mus musculus were obtained from Laboratory Animal Services Center, The Chinese University of Hong Kong. All mice were housed in an environmentally controlled room (22±1° C.; ˜ 50% relative humidity) with a 12-h light-dark cycle, and fed a normal rodent diet and water. Animal care was approved by the Committee on the Use of Human and Animal Subjects in Teaching and Research, Hong Kong Baptist University (REC/19-20/0300).
Mice were randomly assigned to the following four groups (n=6 per group): control group, loperamide group, loperamide+CDD-2101 group, and loperamide+Senna group. The mice in the control group were only orally treated with Milli-Q water. The other groups were orally administrated with loperamide (2.5 mg/kg body weight). CDD-2101 and Senna were administered based on the clinical dosages of MZRW and Senna, respectively, used in constipation patients. The CDD-2101 group was orally administered with 30 g/d/kg body weight. The Senna group was given 8 tablets/day.
All fecal pellets produced during the first 5 min were discarded. Then fecal samples were collected, and the frequency was recorded for the next 9 h. Fecal pellets were put into tubes set in dry ice. After collection, they were stored at −80° C. for further use. Gastrointestinal motility was calculated from pellet frequency. The secretion was determined by pellet water content.

A short description of data set [3]: Fecal phytochemistry: metabolism of Senna ingredients. Type of data set: in vivo, C57BL/6J Mus musculus. The note with it: Senna group, feces. An excerpt: First, the phytochemical compounds in CDD-2101 and feces were characterized using the UHPLC/Q-TOF-MS with the same parameters as for the metabolomics analysis described in section 1.4. Potential active compounds were selected because of their frequent use in pharmacology study, and their high abundance in CDD-2101 and feces. Those compounds were confirmed by commercial standards. Second, the biological targets of these compounds were gathered by searching in BindingDB (https://www.bindingdb.org/) and STITCH (http://stitch.embl.de/). The candidate targets of constipation were gathered by searching on the keyword “constipation” in GeneCards (https://www.genecards.org/). Third, these targets were manually checked in full texts of relevant references. The confirmed proteins were considered to be the predicted targets of CDD-2101 against constipation.

The conditions of data set [4]: cited from earlier work.

Counter-ions that a name gives are not always drawn. Like-named read-outs stand apart in the source and are kept apart here.

As to `C=CCc1ccc(O)c(-c2cc(CC=C)ccc2O)c1` [magnolol], the “cPLA2 (PLA2G4) phosphorylation” value in data set [1] was “stimulated”. In addition, the “inhibition of ALOX5 enzyme” value at ALOX5 is given as “strongly inhibit”. Further, the “inhibition of CYP1A2 enzyme” value on CYP1A2 is “strongly inhibit”. Further, the “binding to CYP1A1 enzyme” value at CYP1A1 enzyme (reported) is on record as “bind”. Turning to `CN(C)C(=O)C(CCN1CCC(O)(c2ccc(Cl)cc2)CC1)(c1ccccc1)c1ccccc1` [loperamide, Loperamide hydrochloride], in data set [2], the “cumulative number of fecal pellet” value stood at 21.5±2.7 pellets/9 h and the “fecal pellet water content” value is 48.2±2.1%.

On to `O=C1C[C@@H](c2ccc(O)cc2)Oc2cc(O)cc(O)c21` [naringenin], for which the “binding to CYP1A1 enzyme” value at CYP1A1 enzyme is “bind”. Regarding `O=C(O)c1cc(O)c2c(c1)[C@H]([C@H]1c3cc(C(=O)O)cc(O)c3C(=O)c3c(O[C@@H]4O[C@H](CO)[C@@H](O)[C@H](O)[C@H]4O)cccc31)c1cccc(O[C@@H]3O[C@H](CO)[C@@H](O)[C@H](O)[C@H]3O)c1C2=O` [sennoside A], the metabolite formed result in data set [3] is recorded as “rhein”.

On to `C[C@]12C[C@@H](O)[C@@H]3C[C@@]1(O[C@@H]1O[C@H](CO)[C@@H](O)[C@H](O)[C@H]1O)[C@@]3(COC(=O)c1ccccc1)C(=O)O2` [albiflorin], for which, in data set [1], the “cPLA2 (PLA2G4) phosphorylation” value was “stimulated”. With `O=C(O)c1cc(O)c2c(c1)[C@@H]([C@H]1c3cc(C(=O)O)cc(O)c3C(=O)c3c(O[C@@H]4O[C@H](CO)[C@@H](O)[C@H](O)[C@H]4O)cccc31)c1cccc(O[C@@H]3O[C@H](CO)[C@@H](O)[C@H](O)[C@H]3O)c1C2=O` [sennoside B], the metabolite formed result in data set [3] is “rhein”. For `COc1ccc([C@@H]2CC(=O)c3c(O)cc(O)cc3O2)cc1O` [hesperetin], the “binding to CYP1A1 enzyme” value at CYP1A1 enzyme is listed as “bind”. `COc1ccc([C@@H]2CC(=O)c3c(O)cc(O[C@@H]4O[C@H](CO[C@@H]5O[C@@H](C)[C@H](O)[C@@H](O)[C@H]5O)[C@@H](O)[C@H](O)[C@H]4O)cc3O2)cc1O` [hesperidin]: the “metabolite formed in the colon” value in data set [4] is reported as “hesperetin”.

These data come from patent US20250082660A1 (priority 2023, published 2025).
